Data from patent EP0326329B1, “Quinazoline derivatives useful as insecticides” (Dow AgroSciences LLC, priority 1988, dated 1989).

Columns and labels:
Type in all cases: in vivo
[1] = tested on: Erysiphe graminis tritici (powdery mildew); assay: Greenhouse Test 1, foliar spray fungicide screen (POWD MDEW), host wheat; conditions: disease control rating, 400 ppm (+++ at 100 ppm)
[2] = tested on: Pyricularia oryzae (rice blast); conditions: disease control rating, foliar spray, host rice; 400 ppm (+++ at 100 ppm)
[3] = tested on: Puccinia recondita tritici (leaf rust); assay: Greenhouse Test 1, foliar spray fungicide screen (LEAF RUST), host wheat; conditions: disease control rating, 400 ppm (+++ at 100 ppm)
[4] = tested on: Botrytis cinerea (gray mold); assay: Greenhouse Test 1, foliar spray fungicide screen (GRAY MOLD), host grape berries; conditions: disease control rating, 400 ppm (+++ at 100 ppm)
[5] = tested on: Pseudoperonospora cubensis (downy mildew); assay: Greenhouse Test 1, foliar spray fungicide screen (DOWN MDEW), host squash; conditions: disease control rating, 400 ppm (+++ at 100 ppm)
[6] = tested on: Southern corn rootworm (Diabrotica undecimpuctata howardi Barber); assay: Mite/insect screen, soil treatment (CRW); conditions: percent mortality; for mortality at 12 ppm / mortality at 24 ppm: Diabrotica, soil treatment, read-out: CRW RESULTS %; for mortality at 12 ppm: CRW rate 12.00 ppm; for mortality at 24 ppm: CRW rate 24.00 ppm
Outline: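 Five 2–3 instar larvae were placed on dry sandy soil with a presoaked corn seed after the soil had received 1 mL of compound solution and dried 6–12 h; cups were kept capped at 23°C. Mortality (%) and phytotoxicity were read after standard exposure. Formulation: acetone/alcohol with emulsifiers, water-diluted.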

[7] = tested on: southern armyworm (Spodopetra eridania Cramer); assay: Mite/insect screen, sprayed squash leaves (SAW); conditions: percent mortality; for mortality at 200 ppm / mortality at 400 ppm: Spodoptera eridania, read-out: SAW RESULTS %; for mortality at 200 ppm: spray rate 200 ppm; for mortality at 400 ppm: spray rate 400 ppm
Outline: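 Steps: formulate compound in acetone/alcohol 50:50 carrying emulsifiers; dilute with water; spray leaves until runoff on upper and lower surfaces; air-dry one hour; for armyworm, excise two […] leaves into a dish of larvae; after exposure, score mortality and plant injury.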

[8] = tested on: Twospotted spider mites (Tetranychus urticae Koch); assay: Mite/insect screen, sprayed squash cotyledons (SM); conditions: percent mortality; for mortality at 400 ppm / mortality at 200 ppm: Tetranychus urticae, read-out: SM RESULTS %; for mortality at 400 ppm: spray rate 400 ppm; for mortality at 200 ppm: spray rate 200 ppm
Outline: (§1)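 Acetone/alcohol (50:50) + emulsifier blends 23 g/L and 13 g/L; water dilution to test concs. Spray both leaf surfaces to runoff, dry 1 h. For armyworm, 2 excised uninfested leaves into Petri dish with larvae. Readout: % mortality, phytotoxicity.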

[9] = tested on: melon aphids (Aphis gossypii Glover); assay: Mite/insect screen, sprayed squash cotyledons (MA); conditions: percent mortality; for mortality at 200 ppm / mortality at 400 ppm: Aphis gossypii, read-out: MA RESULTS %; for mortality at 200 ppm: spray rate 200 ppm; for mortality at 400 ppm: spray rate 400 ppm
Outline: as §1

SMILES | POWD MDEW [1] | RICE BLAST [2] | LEAF RUST [3] | GRAY MOLD [4] | DOWN MDEW [5] | mortality at 12 ppm [6] [%] | mortality at 24 ppm [6] [%] | mortality at 200 ppm [7] [%] | mortality at 400 ppm [7] [%] | mortality at 400 ppm [8] [%] | mortality at 200 ppm [9] [%] | mortality at 400 ppm [9] [%] | mortality at 200 ppm [8] [%] | CRW RESULTS % ([6]; rate not given) [%] | SAW RESULTS % ([7]; rate not given) [%] | SM RESULTS % ([8]; rate not given) [%] | MA RESULTS % ([9]; rate not given) [%]
Cc1cccc2c(OCCc3ccc(C(C)(C)C)cc3)ncnc12 [Example 139, 8-methyl-4-[2-[4-(1,1-dimethylethyl)phenyl]ethoxy]quinazoline] | + (+ = 20-89% control at 400 ppm) | +++ (+++ = 90-100% control at 100 ppm) | + (+ = 20-89% control at 400 ppm) | - (- = 0-19% control at 400 ppm) | ++ (++ = 90-100% control at 400 ppm) | 0 | 0 | 0 | 0 | 100 | 30 | 0 |  |  |  |  | 
Fc1cccc2c(OCCc3cccc4ccccc34)ncnc12 [Example 141, 8-fluoro-4-[2-(1-naphthalenyl)ethoxy]quinazoline] | + (+ = 20-89% control at 400 ppm) | + (+ = 20-89% control at 400 ppm) | + (+ = 20-89% control at 400 ppm) | - (- = 0-19% control at 400 ppm) | + (+ = 20-89% control at 400 ppm) |  | 0 |  | 0 | 0 |  | 0 |  |  |  |  | 
CC(C)c1cccc(C(C)C)c1OCCOc1ncnc2ccccc12 [Example 181, 4-[2-[2,6-bis(i-propyl)phenoxy]ethoxy]quinazoline] | ++ (++ = 90-100% control at 400 ppm) | + (+ = 20-89% control at 400 ppm) | - (- = 0-19% control at 400 ppm) | - (- = 0-19% control at 400 ppm) | + (+ = 20-89% control at 400 ppm) | 0 | 0 | 0 | 0 | 40 | 60 | 50 | 0 |  |  |  | 
Fc1cccc2c(OCCc3ccc(C(F)(F)F)cc3)ncnc12 [Example 118, 8-fluoro-4-[2-(4-trifluoromethyl)ethoxy]quinazoline] | +++ (+++ = 90-100% control at 100 ppm) | +++ (+++ = 90-100% control at 100 ppm) | +++ (+++ = 90-100% control at 100 ppm) | - (- = 0-19% control at 400 ppm) | +++ (+++ = 90-100% control at 100 ppm) | 0 | 0 | 60 | 100 | 0 | 100 | 0 | 100 |  |  |  | 
Fc1cccc2c(OCCc3ccc(Oc4ccccc4)cc3)ncnc12 [Example 10, 8-fluoro-4-[2-(4-phenoxyphenyl)ethoxy]quinazoline] | +++ (+++ = 90-100% control at 100 ppm) | +++ (+++ = 90-100% control at 100 ppm) | +++ (+++ = 90-100% control at 100 ppm) | - (- = 0-19% control at 400 ppm) | +++ (+++ = 90-100% control at 100 ppm) |  | 0 |  | 100 | 0 |  | 0 |  |  |  |  | 
CC(C)(C)c1ccc(CCOc2nc(C(Cl)(Cl)Cl)nc3ccccc23)cc1 [Example 172, 2-(trichloromethyl)-4-[2-[4-(t-butyl)phenyl]ethoxy]quinazoline] | - (- = 0-19% control at 400 ppm) | - (- = 0-19% control at 400 ppm) | - (- = 0-19% control at 400 ppm) | - (- = 0-19% control at 400 ppm) | - (- = 0-19% control at 400 ppm) | 100 | 0 | 0 | 0 | 0 | 40 | 0 | 0 |  |  |  | 
CC(C)c1ccc(CCOc2ncnc3ccccc23)cc1 [Example 88, 4-[2-[4-(i-propyl)phenyl]ethoxy]quinazoline] | +++ (+++ = 90-100% control at 100 ppm) | +++ (+++ = 90-100% control at 100 ppm) | +++ (+++ = 90-100% control at 100 ppm) | - (- = 0-19% control at 400 ppm) | +++ (+++ = 90-100% control at 100 ppm) | 0 | 0 | 0 | 100 | 0 | 100 | 0 | 100 |  |  |  | 
CC(Cc1ccccc1)Oc1ncnc2ccccc12 (centres unmarked) [Example 18, 4-(1-methyl-2-phenylethoxy)quinazoline] | ++ (++ = 90-100% control at 400 ppm) | + (+ = 20-89% control at 400 ppm) | + (+ = 20-89% control at 400 ppm) | - (- = 0-19% control at 400 ppm) | ++ (++ = 90-100% control at 400 ppm) |  | 100 |  | 0 | 0 |  | 0 |  |  |  |  | 
Fc1cccc2c(NCCc3ccc(Cl)cc3)ncnc12 [Example 78, 8-fluoro-N-[2-(4-chlorophenyl)ethyl]-4-quinazolinamine] | + (+ = 20-89% control at 400 ppm) | +++ (+++ = 90-100% control at 100 ppm) | +++ (+++ = 90-100% control at 100 ppm) | - (- = 0-19% control at 400 ppm) | +++ (+++ = 90-100% control at 100 ppm) | 0 | 100 | 100 | 80 | 0 | 0 | 0 | 0 |  |  |  | 
FC(F)(F)c1cc(CCOc2ncnc3ccccc23)cc(C(F)(F)F)c1 [Example 128, 4-[2-[3,5-di(trifluoromethyl)phenyl]ethoxy]quinazoline] | ++ (++ = 90-100% control at 400 ppm) | + (+ = 20-89% control at 400 ppm) | + (+ = 20-89% control at 400 ppm) | - (- = 0-19% control at 400 ppm) | + (+ = 20-89% control at 400 ppm) | 0 | 0 | 0 | 0 | 0 | 0 | 0 | 0 |  |  |  | 
COc1ccccc1CCOc1ncnc2ccccc12 [Example 14, 4-[2-(2-methoxyphenyl)ethoxy]quinazoline] | + (+ = 20-89% control at 400 ppm) | + (+ = 20-89% control at 400 ppm) | + (+ = 20-89% control at 400 ppm) | - (- = 0-19% control at 400 ppm) | ++ (++ = 90-100% control at 400 ppm) |  | 0 |  | 0 | 0 |  | 0 |  |  |  |  | 
COc1ccc(CCOc2ncnc3ccccc23)cc1 [Example 49, 4-[2-(4-methoxyphenyl)ethoxy]quinazoline] | +++ (+++ = 90-100% control at 100 ppm) | +++ (+++ = 90-100% control at 100 ppm) | +++ (+++ = 90-100% control at 100 ppm) | - (- = 0-19% control at 400 ppm) | +++ (+++ = 90-100% control at 100 ppm) |  | 0 |  | 0 | 80 |  | 0 |  | 0 | 0 | 90 | 100
CC(C)c1ccc(CCNc2ncnc3cc(Cl)ccc23)cc1 [Example 40, 7-chloro-N-[2-[4-(i-propyl)phenyl]ethyl]-4-quinazolinamine] | +++ (+++ = 90-100% control at 100 ppm) | ++ (++ = 90-100% control at 400 ppm) | +++ (+++ = 90-100% control at 100 ppm) | - (- = 0-19% control at 400 ppm) | +++ (+++ = 90-100% control at 100 ppm) | 0 | 0 | 40 | 0 | 90 | 20 | 0 | 80 |  |  |  | 
